According to US20260265233A1, “BENZOTHIOPHENE DERIVATIVES AS RXFP1 AGONISTS” (BRISTOL-MYERS SQUIBB COMPANY, priority 2021, published 2026):

Molecular target: T1, human RXFP1 (Homo sapiens, UniProt Q9HBX9)
T1 construct: expressed in transfected cells
T1 sequence (Q9HBX9 1-757): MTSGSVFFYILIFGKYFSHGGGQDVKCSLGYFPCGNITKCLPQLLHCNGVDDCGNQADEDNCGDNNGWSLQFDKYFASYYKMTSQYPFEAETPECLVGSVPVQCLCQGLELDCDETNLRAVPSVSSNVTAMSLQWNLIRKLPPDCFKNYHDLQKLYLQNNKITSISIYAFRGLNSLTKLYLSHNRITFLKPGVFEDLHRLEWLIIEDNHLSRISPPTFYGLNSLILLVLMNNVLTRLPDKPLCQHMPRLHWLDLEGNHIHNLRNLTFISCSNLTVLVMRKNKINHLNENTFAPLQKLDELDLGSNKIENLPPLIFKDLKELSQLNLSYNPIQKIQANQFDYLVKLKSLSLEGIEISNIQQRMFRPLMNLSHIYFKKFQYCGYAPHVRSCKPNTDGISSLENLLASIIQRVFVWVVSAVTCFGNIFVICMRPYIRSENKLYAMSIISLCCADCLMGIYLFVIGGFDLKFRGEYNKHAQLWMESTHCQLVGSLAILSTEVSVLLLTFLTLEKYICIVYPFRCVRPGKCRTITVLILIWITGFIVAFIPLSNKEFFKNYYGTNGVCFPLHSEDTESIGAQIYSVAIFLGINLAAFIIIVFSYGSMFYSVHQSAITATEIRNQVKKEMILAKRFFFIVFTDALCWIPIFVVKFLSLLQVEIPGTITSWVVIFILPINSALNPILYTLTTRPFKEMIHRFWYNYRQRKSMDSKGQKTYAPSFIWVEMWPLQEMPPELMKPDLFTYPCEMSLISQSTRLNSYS
Assay: hRXFP1 HEK293 cAMP assay (HTRF)
Format: cell-based
Details: HEK293 cells stably expressing human RXFP1; 30 min at rt; intracellular cAMP by HTRF
Method in brief: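 HEK293 cells stably expressing human RXFP1 treated 30 min at rt with compound (0.010 nM to 50 μM, 2% DMSO) in HBSS/HEPES buffer with 0.5 mM IBMX. Intracellular cAMP measured by HTRF (665/590 nm ratio) against a cAMP standard curve; potency fitted by 4-parameter logistic.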

Structure (SMILES)	EC50
COc1ccc(N2CCC[C@@H](NC(=O)CN(C)C)C2)cc1C(=O)Nc1c(C(=O)Nc2ccc(F)c(C(F)(F)F)c2)sc2cc(C(F)(F)F)ccc12 [Example 209, (R)-3-(5-(3-(2-(dimethylamino)acetamido)piperidin-1-yl)-2-methoxy-benzamido)-N-(4-fluoro-3-(trifluoromethyl)phenyl)-6-(trifluoromethyl) benzo[b] thiophene-2-carboxamide]	1.48 µM
COc1ccc(-c2cc(C(=O)O)ccc2F)cc1C(=O)Nc1c(C(=O)Nc2ccc(F)c(C(F)(F)F)c2)sc2ccc(C(F)(F)F)cc12 [Example 214, 6-fluoro-3′-((2-((4-fluoro-3-(trifluoromethyl)phenyl)carbamoyl)-5-(trifluoromethyl)benzo[b]thiophen-3-yl)carbamoyl)-4′-methoxy-[1,1′-biphenyl]-3-carboxylic acid]	2.15 µM
COc1ccc(-c2cc(C(=O)O)ccc2F)cc1C(=O)Nc1c(C(=O)Nc2ccc(F)c(C(F)(F)F)c2)sc2cc(C)ccc12 [Example 215, 6-fluoro-3′-((2-((4-fluoro-3-(trifluoromethyl)phenyl)carbamoyl)-6-methylbenzo[b]thiophen-3-yl)carbamoyl)-4′-methoxy-[1,1′-biphenyl]-3-carboxylic acid]	1.43 µM
COc1ncc(C(=O)OC(C)(C)C)cc1C(=O)Nc1c(C(=O)Nc2ccc(F)c(C(F)(F)F)c2)sc2cc(C(F)(F)F)ccc12 [Example 223, tert-butyl 5-((2-((4-fluoro-3-(trifluoromethyl)phenyl)carbamoyl)-6-(trifluoromethyl)benzo[b]thiophen-3-yl)carbamoyl)-6-methoxynicotinate]	1.25 µM
COc1cc(C)c(C(=O)N2CC3(C2)CS(=O)(=O)C3)cc1C(=O)Nc1c(C(=O)Nc2ccc(F)c(C(F)(F)F)c2)sc2cc(C(F)(F)F)ccc12 [Example 226, 3-(5-(2,2-dioxido-2-thia-6-azaspiro[3.3]heptane-6-carbonyl)-2-methoxy-4-methylbenzamido)-N-(4-fluoro-3-(trifluoromethyl)phenyl)-6-(trifluoromethyl) benzo[b] thiophene-2-carboxamide]	1.76 µM
COc1ccc(C(=O)NCCS(C)(=O)=O)cc1C(=O)Nc1c(C(=O)Nc2ccc(F)c(C(F)(F)F)c2)sc2cc(C(F)(F)F)ccc12 [Example 232, N3-(2-((4-fluoro-3-(trifluoromethyl)phenyl)carbamoyl)-6-(trifluoromethyl)benzo[b]thiophen-3-yl)-4-methoxy-N1-(2-(methylsulfonyl)ethyl) isophthalamide]	4.84 µM
COc1ncc(N2CC3(COC3)C2)cc1C(=O)Nc1c(C(=O)Nc2ccc(F)c(C(F)(F)F)c2)sc2cc(C(F)(F)F)ccc12 [Example 233, N-(2-((4-fluoro-3-(trifluoromethyl)phenyl)carbamoyl)-6-(trifluoromethyl)benzo[b]thiophen-3-yl)-2-methoxy-5-(2-oxa-6-azaspiro[3.3]heptan-6-yl)nicotinamide]	4.65 µM
COc1ncc(N2CC3(C2)CS(=O)(=O)C3)cc1C(=O)Nc1c(C(=O)Nc2ccc(F)c(C(F)(F)F)c2)sc2cc(C(F)(F)F)ccc12 [Example 234, 5-(2,2-dioxido-2-thia-6-azaspiro[3.3]heptan-6-yl)-N-(2-((4-fluoro-3-(trifluoromethyl)phenyl)carbamoyl)-6-(trifluoromethyl)benzo[b]thiophen-3-yl)-2-methoxy-nicotinamide]	1.34 µM

Second part, the compound after the results:

EC50	Structure (SMILES)
1.46 µM	COc1ccc(C2CC3(CNC3)C2)cc1C(=O)Nc1c(C(=O)Nc2ccc(F)c(C(F)(F)F)c2)sc2cc(C(F)(F)F)ccc12 [Example 207, N-(4-fluoro-3-(trifluoromethyl)phenyl)-3-(2-methoxy-5-(2-azaspiro[3.3]heptan-6-yl)benzamido)-6-(trifluoromethyl) benzo[b] thiophene-2-carboxamide]
1.48 µM	COc1ccc(N2CCC3(C2)CN(C2COC2)C3)cc1C(=O)Nc1c(C(=O)Nc2ccc(F)c(C(F)(F)F)c2)sc2cc(C(F)(F)F)ccc12 [Example 208, N-(4-fluoro-3-(trifluoromethyl)phenyl)-3-(2-methoxy-5-(2-(oxetan-3-yl)-2,6-diazaspiro[3.4]octan-6-yl)benzamido)-6-(trifluoromethyl) benzo[b] thiophene-2-carboxamide]
3.33 µM	COc1ccc(-c2cnn(C)c2C(=O)O)cc1C(=O)Nc1c(C(=O)Nc2ccc(F)c(C(F)(F)F)c2)sc2cc(C(F)(F)F)ccc12 [Example 212, 4-(3-((2-((4-fluoro-3-(trifluoromethyl)phenyl)carbamoyl)-6-(trifluoromethyl)benzo[b]thiophen-3-yl)carbamoyl)-4-methoxyphenyl)-1-methyl-1H-pyrazole-5-carboxylic acid]
3.36 µM	COc1ccc(C2CCCN(C(C)C)CC2)cc1C(=O)Nc1c(C(=O)Nc2ccc(F)c(C(F)(F)F)c2)sc2cc(C(F)(F)F)ccc12 (stereo not drawn) [Example 213, N-(4-fluoro-3-(trifluoromethyl)phenyl)-3-(5-(1-isopropylazepan-4-yl)-2-methoxy-benzamido)-6-(trifluoromethyl) benzo[b] thiophene-2-carboxamide]
3.49 µM	COc1ccc(C(=O)NCCCO)cc1C(=O)Nc1c(C(=O)Nc2ccc(F)c(C(F)(F)F)c2)sc2cc(C(F)(F)F)ccc12 [Example 216, N3-(2-((4-fluoro-3-(trifluoromethyl)phenyl)carbamoyl)-6-(trifluoromethyl)benzo[b]thiophen-3-yl)-N1-(3-hydroxypropyl)-4-methoxy-isophthalamide]
2.29 µM	COc1ccc(C(=O)NCCO)cc1C(=O)Nc1c(C(=O)Nc2ccc(F)c(C(F)(F)F)c2)sc2cc(C(F)(F)F)ccc12 [Example 217, N3-(2-((4-fluoro-3-(trifluoromethyl)phenyl)carbamoyl)-6-(trifluoromethyl)benzo[b]thiophen-3-yl)-N1-(2-hydroxyethyl)-4-methoxy-isophthalamide]
1.13 µM	COCCNC(=O)c1ccc(OC)c(C(=O)Nc2c(C(=O)Nc3ccc(F)c(C(F)(F)F)c3)sc3cc(C(F)(F)F)ccc23)c1 [Example 218, N3-(2-((4-fluoro-3-(trifluoromethyl)phenyl)carbamoyl)-6-(trifluoromethyl)benzo[b]thiophen-3-yl)-4-methoxy-N1-(2-methoxyethyl) isophthalamide]
1.14 µM	COc1ccc(C(=O)N2CCC[C@@H](O)C2)cc1C(=O)Nc1c(C(=O)Nc2ccc(F)c(C(F)(F)F)c2)sc2cc(C(F)(F)F)ccc12 [Example 219, (R)-N-(4-fluoro-3-(trifluoromethyl)phenyl)-3-(5-(3-hydroxy-piperidine-1-carbonyl)-2-methoxy-benzamido)-6-(trifluoromethyl) benzo[b] thiophene-2-carboxamide]
2.53 µM	COc1ccc(C(=O)N(C)C)cc1C(=O)Nc1c(C(=O)Nc2ccc(F)c(C(F)(F)F)c2)sc2cc(C(F)(F)F)ccc12 [Example 220, N3-(2-((4-fluoro-3-(trifluoromethyl)phenyl)carbamoyl)-6-(trifluoromethyl)benzo[b]thiophen-3-yl)-4-methoxy-N1,N1-dimethyl-isophthalamide]
1.1 µM	COc1ccc(C(=O)N2CCOCC2)cc1C(=O)Nc1c(C(=O)Nc2ccc(F)c(C(F)(F)F)c2)sc2cc(C(F)(F)F)ccc12 [Example 221, N-(4-fluoro-3-(trifluoromethyl)phenyl)-3-(2-methoxy-5-(morpholine-4-carbonyl)benzamido)-6-(trifluoromethyl) benzo[b] thiophene-2-carboxamide]
1.61 µM	COc1ccc(C(=O)N2CCC3(CC2)COC3)cc1C(=O)Nc1c(C(=O)Nc2ccc(F)c(C(F)(F)F)c2)sc2cc(C(F)(F)F)ccc12 [Example 222, N-(4-fluoro-3-(trifluoromethyl)phenyl)-3-(2-methoxy-5-(2-oxa-7-azaspiro[3.5]nonane-7-carbonyl)benzamido)-6-(trifluoromethyl) benzo[b] thiophene-2-carboxamide]
1.06 µM	COc1ccc(S(=O)(=O)N2CCC(C(C)(C)O)CC2)cc1C(=O)Nc1c(C(=O)Nc2ccc(F)c(C(F)(F)F)c2)sc2cc(C(F)(F)F)ccc12 [Example 225, N-(4-fluoro-3-(trifluoromethyl)phenyl)-3-(5-((4-(2-hydroxypropan-2-yl)piperidin-1-yl)sulfonyl)-2-methoxy-benzamido)-6-(trifluoromethyl) benzo[b] thiophene-2-carboxamide]
1.5 µM	COc1ccc(CNC(C)(C)CO)cc1C(=O)Nc1c(C(=O)Nc2ccc(F)c(C(F)(F)F)c2)sc2cc(C(F)(F)F)ccc12 [Example 235, N-(4-fluoro-3-(trifluoromethyl)phenyl)-3-(5-(((1-hydroxy-2-methylpropan-2-yl)amino)methyl)-2-methoxy-benzamido)-6-(trifluoromethyl) benzo[b] thiophene-2-carboxamide]
